Laboratory results published in patent US7759350B2, “Pyrimidine carboxamides” (Orchid Research Laboratories Ltd., priority 2005, dated 2010).

Assays:
[1] = molecular target: purified recombinant COX-1 enzyme (Homo sapiens, UniProt P23219); experiment: COX-1 enzyme based assay; assay type: biochemical; settings: Conc. 10 μM
Experimental: (§1) COX-1 and COX-2 Enzyme Based Assay
(§2) COX-2 enzyme based assays were carried out to check the inhibitory potential of test compounds on the production of prostaglandin by purified recombinant COX-1/COX-2 enzyme (Proc. Nat. Acad. Sci. USA, 88, 2692-2696, 1991; Clin. Immunoassay 15, 116-120, 1992) In this assay, the potential of the test compound to inhibit the production of prostaglandin either by COX-1 or COX-2 from arachidonic acid (substrate) was measured. This was an enzyme based in-vitro assay to evaluate selective COX inhibition with good reproducibility.
(§3) Arachidonic acid was converted to PGH2 (Intermediate product) by COX1/COX-2 in presence or absence of the test compound. The reaction was carried out at 37° C. and after 2 minutes it was stopped by adding 1M HCl. Intermediate products PGH2 was converted to a stable Prostanoid product PGF2α by SnCl2 reduction. The amount of PGF2α produced in the reaction was inversely proportional to the COX inhibitory potential of the test compound. The prostanoid product was quantified via enzyme immunoassay (EIA) using a broadly specific antibody that binds to all the major forms of Prostaglandin, using Cayman ELISA kit as per the procedure outlined by the manufacturer Cayman Chemicals, Ann Arbor, USA).

[2] = tested on: TNF-α; experiment: LPS induced sepsis for measurement of TNF-α inhibition in mice; assay type: in vivo; settings: 50 mg/kg bw oral; female Swiss albino mice; serum 90 minutes after LPS
Experimental: LPS Induced Sepsis for Measurement of TNF-α Inhibition in Mice
The LPS induced sepsis model in mice was performed as described by Les sekut et al (J Lab Clin Med 1994; 124:813-20). Female Swiss albino mice were selected with their body weights being equivalent within each group. The mice were fasted for 20 hours with free access to water. The mice were dosed orally with the test compound suspended in vehicle containing 0.5% Tween 80 in 0.25% Carboxy-methylcellulose sodium salt. The control mice were administered the vehicle alone. After 30 minutes of oral dosing, the mice were injected with 500 μg of Lipopolysaccharide (Escherichia coli, LPS: B4 from Sigma) in phosphate buffer saline solution into the intraperitoneal cavity of the mice. After 90 minutes of LPS administration, the mice were bled via retro-orbital sinus puncture. Blood samples were stored overnight at 4° C. Serum samples were collected by centrifuging the samples at 4000 rpm for 15 minutes at 4° C. Immediately the serum samples were analysed for TNF-α levels, using commercially available mouse TNF-α ELISA kit (Amersham Biosciences) and assay was performed by the manufacturer instruction.

[3] = tested on: TNF-α; experiment: In vitro measurement of TNF-α in human PBMC; assay type: cell-based; settings: LPS; for IC50: TNF-α inhibition
Experimental: In Vitro Measurement of Tumor Necrosis Factor Alpha (TNF-α)
This assay determines the effect of test compounds on the production of TNF-α in human Peripheral Blood Mononuclear Cells (PBMC). Compounds were tested for their ability to inhibit the activity of TNF-α in human PBMC. PBMC were isolated from blood (from healthy volunteers) using BD Vacutainer CPT™ (Cell preparation tube, BD Bio Science) and suspended in RPMI medium (Physiol. Res. 52; 593-598, 2003). The test compounds were pre-incubated with PBMC (0.5 million/incubation well) for 15 minutes at 37° C. and then stimulated with Lipopolysaccharide (Escherichia coli: B4; 1 μg/ml) for 18 hours at 37° C. in 5% CO2. The levels of TNF-α in the cell culture medium were estimated using enzyme linked Immunosorbent assay performed in a 96 well format as per the procedure of the manufacturer (R&D Systems, Inc. 614 McKinley Place Nebr., Minneapolis, Minn. 55413, USA).

[4] = molecular target: T1, purified recombinant COX-2 enzyme (Homo sapiens, UniProt P35354); experiment: COX-2 enzyme based assay; assay type: biochemical; settings: Conc. 10 μM
T1 sequence (P35354 18-604): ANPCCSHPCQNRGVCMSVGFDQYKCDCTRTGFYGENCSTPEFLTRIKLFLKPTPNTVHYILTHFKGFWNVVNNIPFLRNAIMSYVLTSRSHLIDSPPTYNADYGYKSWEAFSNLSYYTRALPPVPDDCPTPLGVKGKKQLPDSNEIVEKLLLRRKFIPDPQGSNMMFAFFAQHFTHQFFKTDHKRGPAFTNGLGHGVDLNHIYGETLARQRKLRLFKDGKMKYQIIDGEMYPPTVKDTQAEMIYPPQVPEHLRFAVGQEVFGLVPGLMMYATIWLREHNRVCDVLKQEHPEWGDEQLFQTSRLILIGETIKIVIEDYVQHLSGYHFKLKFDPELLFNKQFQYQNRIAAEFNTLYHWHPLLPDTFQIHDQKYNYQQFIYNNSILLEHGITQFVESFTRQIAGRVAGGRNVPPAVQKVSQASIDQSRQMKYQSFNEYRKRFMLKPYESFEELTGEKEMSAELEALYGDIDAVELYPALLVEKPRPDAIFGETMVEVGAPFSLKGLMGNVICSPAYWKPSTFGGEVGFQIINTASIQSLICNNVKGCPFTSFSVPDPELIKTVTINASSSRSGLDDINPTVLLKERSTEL
Experimental: as §1, §2, §3

[5] = tested on: SF-268; experiment: Anti-cancer screen (MTT), SF-268; assay type: cell-based; settings: Conc. 100 μM
Experimental: [The source words this procedure for another cell line and reports this cell line under the same test.] (§4) Experimental drugs are screened for anti-cancer activity in three cell lines for their GI50, TGI and LC50 values (using five concentrations for each compound). The cell lines are maintained in DMEM containing 10% fetal bovine serum. 96 well microtiter plates are inoculated with cells in 100 μL for 24 h at 37° C., 5% CO2, 95% air and 100% relative humidity. 5000 HCT116 cells/well, 5000 NCIH460 cells/well, 10000 U251 cells/well and 5000 MDAMB231 cells/well are plated. A separate plate with these cell lines is also inoculated to determine cell viability before the addition of the compounds (T0).
(§5) Following 24 hours incubation, experimental drugs are added to the 96 well plates. Each plate contains one of the above cell lines and the following in triplicate: five different concentrations (0.01, 0.1, 1, 10 and 100 μM) of four different compounds, appropriate dilutions of a cytotoxic standard and control (untreated) wells. Compounds are dissolved in dimethylsulfoxide (DMSO) to make 20 mM stock solutions on the day of drug addition and frozen at −20° C. Serial dilutions of these 20 mM stock solutions are made in complete growth medium such that 100 μL of these drug solutions in medium, of final concentrations equaling 0.01, 0.1, 1, 10 and 100 μM can be added to the cells in triplicate. Standard drugs whose anti-cancer activity has been well documented and which are regularly used are doxorubicin and SAHA.
(§6) Cells are incubated with compounds for 48 hours followed by the addition of 10 μL 3-(4,5-Dimethyl-2-thiazolyl)-2,5-diphenyl-2H-tetrazolium (MTT) solution per well and a subsequent incubation at 37° C., 5% CO2, 95% air and 100% relative humidity, protected from light. After 4 hours, well contents are aspirated carefully followed by addition of 150 μL DMSO per well. Plates are agitated to ensure solution of the formazan crystals in dimethylsulphoxide and absorbance read at 570 nm.
(§7) Percent growth is calculated for each compound's concentration relative to the control and zero measurement wells (To; viability right before compound addition). […]

[6] = tested on: MCF-7; experiment: Anti-cancer screen (MTT), MCF-7; assay type: cell-based; settings: Conc. 100 μM
Experimental: [The source words this procedure for another cell line and reports this cell line under the same test.] as §4, §5, §6, §7

[7] = tested on: NCI-H460; experiment: Anti-cancer screen (MTT), NCI-H460; assay type: cell-based
Experimental: as §4
Following 24 hours incubation, experimental drugs are added to the 96 well plates. […] Compounds are dissolved in dimethylsulfoxide (DMSO) to make 20 mM stock solutions on the day of drug addition and frozen at −20° C. […] Standard drugs whose anti-cancer activity has been well documented and which are regularly used are doxorubicin and SAHA.
as §6
Percent growth is calculated for each compound's concentration relative to the control and zero measurement wells (To; viability right before compound addition). If a test well's O.D. value is greater than the To measurement for that cell line % Growth=(test−zero)/(control−zero)×100
If a test well's O.D. value is lower than the T0 measurement for that cell line, […]

[8] = molecular target: T2, COX-2 (Homo sapiens, UniProt P35354); experiment: Human whole blood assay, COX-2 inhibition (PGE2 after LPS); assay type: cell-based; settings: LPS stimulated; for inhibition at 0.25 µM: Conc. 0.25 μM
T2 construct: Fresh blood was collected in tubes containing sodium heparin by vein puncture from healthy male volunteers; endogenous in cells; host or cells: human whole blood from healthy male volunteers, stimulated with LPS
T2 sequence (P35354 18-604): T1 sequence (P35354 18-604)
Experimental: Human whole blood provides a protein and cell rich milieu appropriate for the study of biochemical efficacy of anti-inflammatory compounds such as selective COX-2 inhibitors. […] This is correlating with the observation that COX-2 inhibitors have no effect on prostaglandin E2 (PGE2) production in normal blood. These inhibitors were active only after incubation of human blood with lipopolysaccharide (LPS), which induces COX-2 production in the blood.
Fresh blood was collected in tubes containing sodium heparin by vein puncture from healthy male volunteers. […] Then test compounds (at various concentrations) or vehicle were added to blood. After that blood was stimulated with LPS B: 4 (10 μg/ml) and incubated for another 18 hours at 37° C. water bath. After which the blood was centrifuged, plasma was separated and stored at −80° C. (J. Pharmacol. Exp. Ther, 271, 1705, 1994; Proc. Natl. Acad. Sci. USA., 96, 7563, 1999). The plasma was assayed for PGE2 using Cayman ELISA kit as per the procedure outlined by the manufacturer (Cayman Chemicals, Ann Arbor, USA).

[9] = tested on: IL-6; experiment: In vitro measurement of IL-6 in human PBMC; assay type: cell-based; settings: Conc. 0.1 μM, LPS
Experimental: (§8) In vitro Measurement of Interleukin-6 (IL-6) & Interleukin-1β (IL1β)
(§9) This assay determines the effect of test compounds on the production of IL-6 and IL1β in human PBMC (Physiol. Res. 52: 593-598, 2003). Compounds were tested for their ability to inhibit the activity of IL-6 and IL1β in human PBMC. PBMC were isolated from blood using BD Vacutainer CPT™ Cell preparation tube (BD Bio Science) and suspended in RPMI medium. The test compounds were preincubated with PBMC (0.5 million/incubation well) for 15 minutes at 37° C. and then stimulated with Lipopolysaccharide (Escherichia coli: B4; 1 μg/ml) for 18 hours at 37° C. in 5% CO2. The levels of IL-6 and IL1β in cell culture medium were estimated using enzyme linked Immunosorbent assay performed in a 96 well format as per the procedure of the manufacturer (R&D Systems, Inc. 614 McKinley Place Nebr., Minneapolis, Minn. 55413, USA).

[10] = tested on: IL-1β; experiment: In vitro measurement of IL-1β in human PBMC; assay type: cell-based; settings: Conc. 0.1 μM, LPS
Experimental: as §8, §9

Sequence of purified recombinant COX-1 enzyme (P23219 24-599): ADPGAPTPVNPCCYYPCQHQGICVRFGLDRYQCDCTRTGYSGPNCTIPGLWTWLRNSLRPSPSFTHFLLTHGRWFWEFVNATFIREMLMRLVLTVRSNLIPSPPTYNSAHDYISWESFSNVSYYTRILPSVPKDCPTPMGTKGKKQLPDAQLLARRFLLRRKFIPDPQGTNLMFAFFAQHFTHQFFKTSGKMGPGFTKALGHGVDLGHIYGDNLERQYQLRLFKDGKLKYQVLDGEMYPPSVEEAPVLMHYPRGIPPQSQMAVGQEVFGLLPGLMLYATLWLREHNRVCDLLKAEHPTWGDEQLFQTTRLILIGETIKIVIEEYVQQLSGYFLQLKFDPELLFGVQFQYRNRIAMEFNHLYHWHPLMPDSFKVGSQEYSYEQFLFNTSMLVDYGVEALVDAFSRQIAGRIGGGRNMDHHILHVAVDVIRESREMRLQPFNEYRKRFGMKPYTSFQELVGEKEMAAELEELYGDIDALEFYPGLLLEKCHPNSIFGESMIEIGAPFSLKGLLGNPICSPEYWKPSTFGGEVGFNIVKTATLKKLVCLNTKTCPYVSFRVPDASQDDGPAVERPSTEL

| inhibition at 10 µM [1] [%] | IC50 [3] [nM] | inhibition at 10 µM [4] [%] | Compound | TNF-α Inhibition (%) at 50 mg/kg bw [2] [%] | inhibition at 1 µM [3] [%] | also measured |
| --- | --- | --- | --- | --- | --- | --- |
| 28.8 | 860 | 19.3 | CNc1nc(-c2cccnc2)nc(SC)c1C(=O)Nc1ccc(OC)cc1 [Example 6, N-(4-Methoxyphenyl)-4-(methylamino)-6-(methylthio)-2-pyridin-3-ylpyrimidine-5-carboxamide] | 77.0 |  | melting point: 184 to 197 °C; inhibition at 0.1 µM [3]: 30.3% |
|  |  |  | CCc1ccc(NC(=O)c2c(NC)nc(-c3ccc(SC)cc3)nc2SC)cc1 [Example 8, N-(4-Ethylphenyl)-4-(methylamino)-6-(methylthio)-2-[4-(methylthio)phenyl]pyrimidine-5-carboxamide] |  |  | Percentage growth CNS SF-268 [5]: 1%; Percentage growth Breast MCF-7 [6]: 4%; Percentage growth Lung NCI-H460 ([7]; Conc. 100 μM): 0%; inhibition at 0.1 µM [3]: 27.8% |
|  |  |  | CNc1nc(-c2ccc(S(N)(=O)=O)cc2)nc(NC)c1C(=O)Nc1ccc(C)c(C)c1 [Example 10, 2-[4-(Aminosulfonyl)phenyl]-4,6-bis(methylamino)-N-(3,4-dimethylphenyl)pyrimidine-5-carboxamide] |  |  | inhibition at 10 µM ([8]; Conc. 10 μM): 24.2% |
|  |  |  | CNc1nc(-c2ccc(S(N)(=O)=O)cc2)nc(SC)c1C(=O)Nc1ccc(C)cc1 [Example 12, 2-[4-(Aminosulfonyl)phenyl]-4-(methylamino)-N-(4-methylphenyl)-6-(methylthio)pyrimidine-5-carboxamide] |  |  | inhibition at 0.25 µM [8]: 24.9% |
|  |  |  | CNc1nc(-c2ccc(S(N)(=O)=O)cc2)nc(NC)c1C(=O)Nc1ccc(C)cc1 [Example 13, 2-[4-(Aminosulfonyl)phenyl]-4,6-bis(methylamino)-N-(4-methylphenyl)pyrimidine-5-carboxamide] |  |  | inhibition at 0.1 µM [9]: 21.5%; inhibition at 0.25 µM [8]: 24.5%; IL-1β Inhibition (%) [10]: Not active |
| 25.5 | 900 | 23.2 | CNc1nc(-c2cccnc2)nc(NC)c1C(=O)Nc1ccc(OC)cc1 [Example 28, N-(4-Methoxyphenyl)-4,6-bis(methylamino)-2-pyridin-3-ylpyrimidine-5-carboxamide] | 81.5 | 45.1 |  |
| 15.2 | 1800 | 26.8 | CSc1nc(-c2ccncc2)nc(NCCO)c1C(=O)Nc1ccc(C)cc1 [Example 35, 4-[(2-Hydroxyethyl)amino]-N-(4-methylphenyl)-6-(methylthio)-2-pyridin-4-ylpyrimidine-5-carboxamide] | 59.94 | 52.7 | GI50 ([7]; Homo sapiens, NCI-H460, 48 hours, MTT): 9 µM |
| 6.58 | 1500 | 17.1 | CSc1nc(-c2ccncc2)nc(NCCO)c1C(=O)Nc1ccc(C)c(C)c1 [Example 37, N-(3,4-Dimethylphenyl)-4-[(2-hydroxyethyl)amino]-6-(methylthio)-2-pyridin-4-ylpyrimidine-5-carboxamide] | 66.65 | 42.7 |  |
